The record followed here is patent publication US20160038526A1, “TREATMENT OF PROSTATE CANCER” (THOMAS JEFFERSON UNIVERSITY, priority 2012, published 2016).

Common to all, as to format: cell-based
Test [1] deals with CAPAN human pancreatic cancer cells. Briefly: Cell viability assay, CAPAN. The method, then: (§1) CWR22Rv1 prostate cancer cells were treated with N6BAP or the control compound C5 (Ctrl) at 25 μM concentration or vehicle for 24 h. Following trypan blue exclusion, the attached viable vs. de-attached dead cells were counted. […] The bars indicate mean±SD of triplicate wells. In another assay, CWR22Rv1, LNCaP and DU145 cells were treated with N6BAP, the control compound C5 (Ctrl) or vehicle at indicated concentrations. The fraction of alive cells was determined by MTS ([…]) metabolic activity assay (CellTiter 96® AQueous Assay kit). The results are shown in FIGS. 9C, 9D and 9E, respectively.
(§2) The procedure of Example 9 was followed, substituting cells of the following solid tumor cell lines for the cells treated in Example 9: A549 human lung cancer cells, CAPAN human pancreatic cancer cells, T47D human breast cancer cells, […], A2058 human melanoma and COS-7 monkey fibroblast cell lines.

Test [2] has as its system HT1080 (fibrosarcoma). In words: Cell viability assay, HT1080.
Test [3] relates to A2058 human melanoma. Briefly: Cell viability assay, A2058. The method, then: as §1, §2
Test [4] concerns T47D human breast cancer cells. In words: Cell viability assay, T47D. As to the method: as §1, §2
For test [5], the target named is T1, Stat5a (Homo sapiens, UniProt P42229).
T1 sequence (P42229 1-794): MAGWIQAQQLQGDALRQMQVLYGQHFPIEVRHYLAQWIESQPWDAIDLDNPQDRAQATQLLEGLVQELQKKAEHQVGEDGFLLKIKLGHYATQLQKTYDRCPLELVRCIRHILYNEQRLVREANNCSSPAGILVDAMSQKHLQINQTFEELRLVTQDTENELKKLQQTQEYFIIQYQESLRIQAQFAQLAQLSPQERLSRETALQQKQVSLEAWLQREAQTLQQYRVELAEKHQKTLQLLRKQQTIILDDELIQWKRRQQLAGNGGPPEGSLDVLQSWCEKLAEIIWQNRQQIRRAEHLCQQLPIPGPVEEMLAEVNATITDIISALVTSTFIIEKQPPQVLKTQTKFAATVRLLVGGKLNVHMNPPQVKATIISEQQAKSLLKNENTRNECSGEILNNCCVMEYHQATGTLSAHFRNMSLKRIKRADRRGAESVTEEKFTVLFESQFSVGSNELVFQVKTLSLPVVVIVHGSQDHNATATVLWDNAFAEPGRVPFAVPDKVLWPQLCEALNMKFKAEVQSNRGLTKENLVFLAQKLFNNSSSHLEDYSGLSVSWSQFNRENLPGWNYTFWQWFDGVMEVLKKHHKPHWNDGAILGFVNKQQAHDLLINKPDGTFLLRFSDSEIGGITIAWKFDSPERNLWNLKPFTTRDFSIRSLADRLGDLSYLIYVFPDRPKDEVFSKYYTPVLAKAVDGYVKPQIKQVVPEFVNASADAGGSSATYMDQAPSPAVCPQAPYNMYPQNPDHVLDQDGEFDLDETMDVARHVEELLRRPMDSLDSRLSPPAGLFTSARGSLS
In words: Stat5 dimerization assay (FLAG-/MYC-tagged Stat5a co-immunoprecipitation) in PC-3 cells. More on the design: expressed in transfected cells; host or cells: PC-3. Particulars: 2 hours pretreatment, hPrl 10 nM 30 minutes. The method, then: FLAG-tagged Stat5a and MYC-tagged Stat5a were generated as follows. Plasmid pCMV3-FLAG-Stat5a, pCMV3-MYC-Stat5a and pPrlR were co-transfected using FuGENE6 (Roche) into PC-3 cells (2 μg of each plasmid per 1×10^7 cells). The cells were starved for 20 hours, pretreated with N6BAP for 2 hours, then stimulated with hPrl (10 nM) in RPMI 1640 without serum for 30 minutes. The cell lysates were immunoprecipitated with 25 μl anti-FLAG M2 […] affinity gel (2 μg/ml, Sigma), anti-MYC pAb (1 μg/ml, Upstate) or normal rabbit serum (NRS). The primary antibodies were used in the immunoblottings at the following concentrations: anti-FLAG pAb (1:1000; Stratagene), anti-MYC mAb (1:1000; Sigma), anti-Stat5a/b mAb (1:250) (Transduction Laboratories) detected by horseradish peroxidase-conjugated secondary antibodies.
Lanes 1, 2, 4, 6, 8, 10, 12, 14 and 16 represent cells stimulated with human prolactin (Prl) for 30 minutes which induces dimerization of Stat5. Two hours prior to Prl-stimulation, the cells had been treated with DMSO (lanes 1-4), the control compound C5 (lanes 5 and 6) or N6BAP (lanes 7-16) to test whether the Stat5a/b-inhibitor compound, N6BAP, would be able to inhibit dimerization of Stat5. […] It should be noted the drug effect in this study was not due to cell apoptosis induction, as the treatment time was only 2 hours. […]

`O=P(O)(O)OC[C@H]1O[C@@H](n2cnc3c(NCc4ccccc4)ncnc32)[C@H](O)[C@@H]1O` [N6BAP, N^6-benzyladenosine-5′-monophosphate]: the cell viability result in test [1], in test [2], in test [3] and in test [4] was “did not affect the viability” each time. In test [5], the “dimerization of Stat5a” value is given as “effectively inhibited Stat5a dimerization”.
